Earlier results on one molecule are cited in patent US20040063167A1, “Minimising calibration problems of in vivo glucose sensors” (priority 2002, published 2004).

Some results are limits rather than exact numbers.

This data set relates to animal, plant and bacterial cells in culture.

As to `OO` [H2O2, Hydrogen peroxide], the “levels of H2O2 that seem to have limited cytotoxicity” value (many cell types, "at or below about") is 20 to 50 µM. Further, the “levels of H2O2 described as being cytotoxic” value (wide range of animal, plant and bacterial cells in culture, "usually") was at least 50 µM.
